Experimental data from ChEMBL document CHEMBL1141400, “Influence of conformation and intramolecular hydrogen bonding on the acyl glucuronidation and biliary excretion of acetylenic bis-dipyrrinones related to bilirubin” (J Med Chem, 2007).

Tested on: Rattus norvegicus
Assay: Hepatobiliary metabolism in UGT1A1-deficient Gunn rat measured as biliary excretion at 0.25 mg, iv within 240 mins
Type: ADME, organism-based, Bile
Details: in vivo, 4 h

## CCC1=C(C)C(=O)N/C1=C\c1[nH]c(C#Cc2[nH]c(/C=C3/NC(=O)C(C)=C3CC)c(C)c2CCC(=O)O)c(CCC(=O)O)c1C
  Activity: 93%
